The first assay deals with HCV 1b genotype. The assay is described as follows: HCV Replicon assay (HCV-neo replicon cells, wild-type). The settings on record: HCV 1b genotype replicon; class symbols. In kind it is cell-based. Put shortly: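 Inhibition was measured in HCV-neo (genotype 1b) replicon cells. Some assay versions used luciferase reporters.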
Usually EC50 stands for the concentration needed to bring the measured effect to its halfway point. With `C[C@@H](c1nc2cc(C#Cc3ccc4[nH]c([C@H](C)N(C)C(=O)Cc5ccccc5)nc4c3)ccc2[nH]1)N(C)C(=O)Cc1ccccc1` [Example M32], the EC50 is under 4.57 nM.
Still for that read-out and setting: as for `C[C@@H](c1nc2cc(C#Cc3ccc4[nH]c([C@H](C)N(C)C(=O)[C@H](O)c5ccccc5)nc4c3)ccc2[nH]1)N(C)C(=O)[C@H](O)c1ccccc1` [Example M33], the figure is under 4.57 nM; as for `C[C@@H](c1nc2cc(C#Cc3ccc4nc([C@H](C)N(C)C(=O)[C@@H](c5ccccc5)N(C)C)[nH]c4c3)ccc2[nH]1)N(C)C(=O)[C@@H](c1ccccc1)N(C)C` [Example M35], under 4.57 nM.
`O=C(Cc1ccccn1)N1CCC[C@H]1c1nc2cc(CCc3ccc4[nH]c([C@@H]5CCCN5C(=O)Cc5ccccn5)nc4c3)ccc2[nH]1` [Example M43, 5,5′-(1,2-ethanediyl)bis(2-((2S)-1-(2-pyridinylacetyl)-2-pyrrolidinyl)-1H-benzimidazole)]: the EC50 lay in the range of 4.57 to 99 nM.
The same measure, in the same setting: in the case of `O=C(Cc1ccccn1)N1CCC[C@H]1c1nc2ccc(C#Cc3ccc4[nH]c([C@@H]5CCCN5C(=O)[C@H]5CCCO5)nc4c3)cc2[nH]1` [Example M48, 5-((2-((2S)-1-(2-pyridinylacetyl)-2-pyrrolidinyl)-1H-benzimidazol-6-yl)ethynyl)-2-((2S)-1-((2R)-tetrahydro-2-furanylcarbonyl)-2-pyrrolidinyl)-1H-benzimidazole] it was under 4.57 nM.

Staying with this assay, now noted: HCV 1b genotype replicon; numeric values.
Take `C[C@@H](c1nc2cc(C#Cc3ccc4[nH]c([C@H](C)N(C)C(=O)[C@@](C)(O)c5ccccc5)nc4c3)ccc2[nH]1)N(C)C(=O)[C@@](C)(O)c1ccccc1` [Example M34]: the EC50 was 40 nM.
In the case of `COC(=O)N[C@@H](C(=O)N(C)[C@@H](C)c1nc2cc(C#Cc3ccc4[nH]c([C@H](C)N(C)C(=O)[C@H](NC(=O)OC)c5ccccc5)nc4c3)ccc2[nH]1)c1ccccc1` [Example M36, dimethyl (1,2-ethynediylbis(1H-benzimidazole-5,2-diyl(1S)-1,1-ethanediyl(methylimino)((1R)-2-oxo-1-phenyl-2,1-ethanediyl)))biscarbamate], the EC50 was 0.005 nM.

Still in this assay, the particulars now being: Hepatitis C virus, HCV 1b genotype replicon; class symbols.
`CC(=O)N[C@@H](C(=O)N[C@@H](C)c1nc2cc(C#Cc3ccc4nc([C@H](C)NC(=O)[C@H](NC(C)=O)c5ccccc5)[nH]c4c3)ccc2[nH]1)c1ccccc1` [Example M30, (2R)-2-acetamido-N-((1S)-1-(5-((2-((1S)-1-(((2R)-2-acetamido-2-phenylacetyl)amino)ethyl)-1H-benzimidazol-6-yl)ethynyl)-1H-benzimidazol-2-yl)ethyl)-2-phenylacetamide]: the EC50 is under 4.57 nM.
Still for that read-out and setting: as for `O=C(Cc1ccccc1)N1CCC[C@H]1c1nc2cc(C#Cc3ccc4[nH]c([C@@H]5CCCN5C(=O)Cc5ccccc5)nc4c3)ccc2[nH]1` [Example M37, 5,5′-(1,2-ethynediyl)bis(2-((2S)-1-(phenylacetyl)-2-pyrrolidinyl)-1H-benzimidazole)], the figure is under 4.57 nM; as for `O=C(Cc1ccccc1)N1C[C@H](O)C[C@H]1c1nc2cc(C#Cc3ccc4[nH]c([C@@H]5C[C@@H](O)CN5C(=O)Cc5ccccc5)nc4c3)ccc2[nH]1` [Example M37.1, (3R,5S,3′R,5′S)-5,5′-(1,2-ethynediylbis(1H-benzimidazole-5,2-diyl))bis(1-(phenylacetyl)-3-pyrrolidinol)], under 4.57 nM.
Regarding `O=C(Cc1ccccc1)N1C[C@@H](N2CCCC2)C[C@H]1c1nc2cc(C#Cc3ccc4[nH]c([C@@H]5C[C@H](N6CCCC6)CN5C(=O)Cc5ccccc5)nc4c3)ccc2[nH]1` [Example M37.2, (3′S,5′S,3″″S,5″″S)-5′,5″-(1,2-ethynediylbis(1H-benzimidazole-5,2-diyl))bis(1′-(phenylacetyl)-1,3′-bipyrrolidine)], the EC50 was under 4.57 nM.
As to `O=C(Cc1ccccc1)N1C[C@@H](N2CCOCC2)C[C@H]1c1nc2cc(C#Cc3ccc4[nH]c([C@@H]5C[C@H](N6CCOCC6)CN5C(=O)Cc5ccccc5)nc4c3)ccc2[nH]1` [Example M37.3, 5,5′-(1,2-ethynediyl)bis(2-((2S,4S)-4-(4-morpholinyl)-1-(phenylacetyl)-2-pyrrolidinyl)-1H-benzimidazole)], the EC50 fell in the range of 4.57 to 99 nM.
For `O=C(Cc1ccccc1)N1CCC[C@H]1c1nc2cc(CCc3ccc4[nH]c([C@@H]5CCCN5C(=O)Cc5ccccc5)nc4c3)ccc2[nH]1` [Example M38], the 50% effective concentration (EC50) is under 4.57 nM.
On to `O=C(Cc1ccccc1)N1CCC[C@H]1c1nc2cc(-c3ccc4nc([C@@H]5CCCN5C(=O)Cc5ccccc5)[nH]c4c3)ccc2[nH]1` [Example M39, 2,2′-bis((2S)-1-(phenylacetyl)-2-pyrrolidinyl)-1H,1′H-5,5′-bibenzimidazole], for which the EC50 lay within 100 to 999 nM.
The same measure, in the same setting: as for `O=C(OCc1ccccc1)N1CCC[C@H]1c1nc2cc(-c3ccc4nc([C@@H]5CCCN5C(=O)OCc5ccccc5)[nH]c4c3)ccc2[nH]1` [Example M40, dibenzyl(2S,2′S)-2,2′-(1H,1′H-5,5′-bibenzimidazole-2,2′-diyl)di(1-pyrrolidinecarboxylate)], the figure is 100 to 999 nM.
On the same count and under the same terms, as for `O=C([C@H]1CCCO1)N1CCC[C@H]1c1nc2cc(CCc3ccc4[nH]c([C@@H]5CCCN5C(=O)[C@H]5CCCO5)nc4c3)ccc2[nH]1` [Example M42, 5,5′-(1,2-ethanediyl)bis(2-((2S)-1-((2R)-tetrahydro-2-furanylcarbonyl)-2-pyrrolidinyl)-1H-benzimidazole)], the figure is 4.57 to 99 nM.
Regarding `O=C(CC1CC1)N1CCC[C@H]1c1nc2cc(CCc3ccc4nc([C@@H]5CCCN5C(=O)CC5CC5)[nH]c4c3)ccc2[nH]1` [Example M44, 2-((2S)-1-(cyclopropylacetyl)-2-pyrrolidinyl)-5-(2-(2-((2S)-1-(cyclopropylacetyl)-2-pyrrolidinyl)-1H-benzimidazol-6-yl)ethyl)-1H-benzimidazole], the EC50 was 100 to 999 nM.
Take `O=C(C1CCC1)N1CCC[C@H]1c1nc2cc(CCc3ccc4nc([C@@H]5CCCN5C(=O)C5CCC5)[nH]c4c3)ccc2[nH]1` [Example M45, 2-((2S)-1-(cyclobutylcarbonyl)-2-pyrrolidinyl)-5-(2-(2-((2S)-1-(cyclobutylcarbonyl)-2-pyrrolidinyl)-1H-benzimidazol-6-yl)ethyl)-1H-benzimidazole]: the EC50 fell in the range of 100 to 999 nM.
Still for that read-out and setting: as for `O=C(c1cccs1)N1CCC[C@H]1c1nc2cc(CCc3ccc4[nH]c([C@@H]5CCCN5C(=O)c5cccs5)nc4c3)ccc2[nH]1` [Example M45.1, 5,5′-(1,2-ethanediyl)bis(2-((2S)-1-(2-thienylcarbonyl)-2-pyrrolidinyl)-1H-benzimidazole)], the figure is 100 to 999 nM; as for `O=C(Cc1cccnc1)N1CCC[C@H]1c1nc2cc(CCc3ccc4[nH]c([C@@H]5CCCN5C(=O)Cc5cccnc5)nc4c3)ccc2[nH]1` [Example M45.2, 5,5′-(1,2-ethanediyl)bis(2-((2S)-1-(3-pyridinylacetyl)-2-pyrrolidinyl)-1H-benzimidazole)], 4.57 to 99 nM; as for `COC(=O)N[C@H](C(=O)N1CCCC[C@H]1c1nc2ccc(-c3ccc(-c4ccc5nc([C@@H]6CCCCN6C(=O)[C@@H](NC(=O)OC)C(C)C)[nH]c5c4)cc3)cc2[nH]1)C(C)C` [Example M46.3, Methyl((1S)-1-(((2S)-2-(5-(4-(2-((2S)-1-((2S)-2-((methoxycarbonyl)amino)-3-methylbutanoyl)-2-piperidinyl)-1H-benzimidazol-5-yl)phenyl)-1H-benzimidazol-2-yl)-1-piperidinyl)carbonyl)-2-methylpropyl)carbamate], under 4.57 nM.
Still for that read-out and setting: as for `O=C(Cc1ccccc1)N1CCC[C@H]1c1nc2cc(C#Cc3ccc4[nH]c([C@@H]5CCCN5C(=O)[C@H]5CCCO5)nc4c3)ccc2[nH]1` [Example M47, 5-((2-((2S)-1-(phenylacetyl)-2-pyrrolidinyl)-1H-benzimidazol-6-yl)ethynyl)-2-((2S)-1-((2R)-tetrahydro-2-furanylcarbonyl)-2-pyrrolidinyl)-1H-benzimidazole], the figure is under 4.57 nM; as for `O=C([C@H]1CCCO1)N1C[C@H](O)C[C@H]1c1nc2cc(C#Cc3ccc4[nH]c([C@@H]5C[C@@H](O)CN5C(=O)[C@H]5CCCO5)nc4c3)ccc2[nH]1` [Example M47.1, (3R,5S,3′R,5′S)-5,5′-(1,2-ethynediylbis(1H-benzimidazole-5,2-diyl))bis(1-((2R)-tetrahydro-2-furanylcarbonyl)-3-pyrrolidinol)], 100 to 999 nM.

Still in this assay, the particulars now being: Hepatitis C virus, HCV 1b genotype replicon; numeric values.
`COC(=O)N[C@@H](C(=O)N[C@@H](C)c1nc2cc(C#Cc3ccc4[nH]c([C@H](C)NC(=O)[C@H](NC(=O)OC)c5ccccc5)nc4c3)ccc2[nH]1)c1ccccc1` [Example M31, dimethyl (1,2-ethynediylbis(1H-benzimidazole-5,2-diyl(1S)-1,1-ethanediylimino((1R)-2-oxo-1-phenyl-2,1-ethanediyl)))biscarbamate]: the EC50 was 0.033 nM.
Still for that read-out and setting: in the case of `O=C(C1CC1)N1CCC[C@H]1c1nc2ccc(CCc3ccc4nc([C@@H]5CCCN5C(=O)C5CC5)[nH]c4c3)cc2[nH]1` [Example M41, 2-((2S)-1-(cyclopropylcarbonyl)-2-pyrrolidinyl)-5-(2-(2-((2S)-1-(cyclopropylcarbonyl)-2-pyrrolidinyl)-1H-benzimidazol-6-yl)ethyl)-1H-benzimidazole] it was 460 nM; in that of `COC(=O)N[C@H](C(=O)N1[C@@H]2C[C@@H]2C[C@H]1c1nc2ccc(-c3ccc(-c4ccc5nc([C@@H]6C[C@H]7C[C@H]7N6C(=O)[C@@H](NC(=O)OC)C(C)C)[nH]c5c4)cc3)cc2[nH]1)C(C)C` [Example M46, methyl((1S)-1-(((1R,3S,5R)-3-(6-(4-(2-((1R,3S,5R)-2-((2S)-2-((methoxycarbonyl)amino)-3-methylbutanoyl)-2-azabicyclo[3.1.0]hex-3-yl)-1H-benzimidazol-6-yl)phenyl)-1H-benzimidazol-2-yl)-2-azabicyclo[3.1.0]hex-2-yl)carbonyl)-2-methylpropyl)carbamate], 0.006 nM.
The same measure, in the same setting: in the case of `CC(C)CN[C@H]1C[C@@H](c2nc3cc(C#Cc4ccc5[nH]c([C@@H]6C[C@H](NCC(C)C)CN6C(=O)[C@H]6CCCO6)nc5c4)ccc3[nH]2)N(C(=O)[C@H]2CCCO2)C1` [Example M47.2, (3S,5S,3′S,5′S)-5,5′-(1,2-ethynediylbis(1H-benzimidazole-5,2-diyl))bis(N-isobutyl-1-((2R)-tetrahydro-2-furanylcarbonyl)-3-pyrrolidinamine)] it was 610 nM.

Values taken from patent US7906655B2, “Hepatitis C virus inhibitors” (Bristol-Myers Squibb Company, priority 2008, dated 2011).
